Here are results for seven molecules from US20240150377A1, “MODULATORS OF CYSTIC FIBROSIS TRANSMEMBRANE CONDUCTANCE REGULATOR” (VERTEX PHARMACEUTICALS INCORPORATED, priority 2020, published 2024).

Where two headings read alike, the source gives them in different places.

For data set [1] the following is noted: amide bond, 13-membered ring, DMF, 25.0 °C, 0.33 h.
Data set [2] concerns the target T1, CFTR (Homo sapiens, UniProt P13569). In words: standard Ussing Chamber Assay for CFTR potentiator activity. Type of data set: cell-based. The following applies: qualitative statement.
Target sequence in this assay (P13569 whole entry, species assumed): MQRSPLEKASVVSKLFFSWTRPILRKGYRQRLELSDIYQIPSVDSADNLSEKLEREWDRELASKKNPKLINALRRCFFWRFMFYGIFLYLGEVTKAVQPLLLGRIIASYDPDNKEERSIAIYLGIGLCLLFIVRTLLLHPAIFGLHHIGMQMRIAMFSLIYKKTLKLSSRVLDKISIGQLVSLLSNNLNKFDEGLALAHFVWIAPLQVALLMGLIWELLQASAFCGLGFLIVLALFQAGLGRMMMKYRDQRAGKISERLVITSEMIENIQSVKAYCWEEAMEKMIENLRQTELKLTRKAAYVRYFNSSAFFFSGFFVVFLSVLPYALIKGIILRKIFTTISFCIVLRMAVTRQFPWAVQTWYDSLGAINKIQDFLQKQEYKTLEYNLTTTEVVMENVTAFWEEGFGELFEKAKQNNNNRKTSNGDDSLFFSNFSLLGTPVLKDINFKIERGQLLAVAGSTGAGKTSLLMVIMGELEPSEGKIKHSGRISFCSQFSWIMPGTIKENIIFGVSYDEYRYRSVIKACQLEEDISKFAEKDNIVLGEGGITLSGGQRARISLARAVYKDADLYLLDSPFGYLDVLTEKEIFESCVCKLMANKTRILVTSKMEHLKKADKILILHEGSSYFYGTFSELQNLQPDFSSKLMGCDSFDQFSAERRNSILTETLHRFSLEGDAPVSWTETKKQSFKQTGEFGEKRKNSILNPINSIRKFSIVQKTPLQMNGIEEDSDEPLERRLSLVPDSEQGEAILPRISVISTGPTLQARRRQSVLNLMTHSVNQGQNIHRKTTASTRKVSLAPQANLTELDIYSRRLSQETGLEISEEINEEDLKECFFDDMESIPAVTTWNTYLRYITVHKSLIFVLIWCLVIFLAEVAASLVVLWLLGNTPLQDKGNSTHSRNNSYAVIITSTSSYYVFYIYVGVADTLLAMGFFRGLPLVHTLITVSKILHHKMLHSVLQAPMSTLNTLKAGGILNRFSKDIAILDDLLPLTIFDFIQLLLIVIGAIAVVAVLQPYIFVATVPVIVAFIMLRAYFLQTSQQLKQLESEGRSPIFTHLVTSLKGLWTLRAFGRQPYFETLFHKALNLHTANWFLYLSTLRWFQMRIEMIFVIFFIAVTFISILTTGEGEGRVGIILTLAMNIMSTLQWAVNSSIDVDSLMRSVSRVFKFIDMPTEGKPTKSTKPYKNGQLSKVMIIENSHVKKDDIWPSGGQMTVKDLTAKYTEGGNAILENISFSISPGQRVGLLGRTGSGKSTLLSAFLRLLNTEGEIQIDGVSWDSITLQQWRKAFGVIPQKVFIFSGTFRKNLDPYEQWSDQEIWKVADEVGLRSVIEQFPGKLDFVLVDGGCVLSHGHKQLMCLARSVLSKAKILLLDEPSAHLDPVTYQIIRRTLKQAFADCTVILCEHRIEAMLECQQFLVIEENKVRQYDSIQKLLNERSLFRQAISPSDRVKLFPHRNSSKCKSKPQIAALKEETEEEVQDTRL
Data set [3] concerns the target T1, CFTR. In words: Membrane potential dye, Enteroid Assay A. Type of data set: cell-based. Conditions: Table 6; for Ent. A Max Activity: chloride transport as % of triple combination control (Enteroid Assay A); for EC50: human enteroid cells, 18-24 hours, acute 10 μM forskolin and 300 nM ivacaftor, read-out: Ent. A EC50. In a few lines:
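Human intestinal enteroids incubated 18-24 h at 37 °C with test compound, then loaded with 20 μM methyl oxonol (with CaCC inhibitors). Chloride transport triggered in chloride-free buffer with 10 μM forskolin, 100 μM IBMX, 300 nM Compound III; fluorescence read 15 min, expressed as % of a triple-combination corrector/potentiator control.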
Target sequence in this assay (P13569 with tags, fused parts or gaps DEL508-508): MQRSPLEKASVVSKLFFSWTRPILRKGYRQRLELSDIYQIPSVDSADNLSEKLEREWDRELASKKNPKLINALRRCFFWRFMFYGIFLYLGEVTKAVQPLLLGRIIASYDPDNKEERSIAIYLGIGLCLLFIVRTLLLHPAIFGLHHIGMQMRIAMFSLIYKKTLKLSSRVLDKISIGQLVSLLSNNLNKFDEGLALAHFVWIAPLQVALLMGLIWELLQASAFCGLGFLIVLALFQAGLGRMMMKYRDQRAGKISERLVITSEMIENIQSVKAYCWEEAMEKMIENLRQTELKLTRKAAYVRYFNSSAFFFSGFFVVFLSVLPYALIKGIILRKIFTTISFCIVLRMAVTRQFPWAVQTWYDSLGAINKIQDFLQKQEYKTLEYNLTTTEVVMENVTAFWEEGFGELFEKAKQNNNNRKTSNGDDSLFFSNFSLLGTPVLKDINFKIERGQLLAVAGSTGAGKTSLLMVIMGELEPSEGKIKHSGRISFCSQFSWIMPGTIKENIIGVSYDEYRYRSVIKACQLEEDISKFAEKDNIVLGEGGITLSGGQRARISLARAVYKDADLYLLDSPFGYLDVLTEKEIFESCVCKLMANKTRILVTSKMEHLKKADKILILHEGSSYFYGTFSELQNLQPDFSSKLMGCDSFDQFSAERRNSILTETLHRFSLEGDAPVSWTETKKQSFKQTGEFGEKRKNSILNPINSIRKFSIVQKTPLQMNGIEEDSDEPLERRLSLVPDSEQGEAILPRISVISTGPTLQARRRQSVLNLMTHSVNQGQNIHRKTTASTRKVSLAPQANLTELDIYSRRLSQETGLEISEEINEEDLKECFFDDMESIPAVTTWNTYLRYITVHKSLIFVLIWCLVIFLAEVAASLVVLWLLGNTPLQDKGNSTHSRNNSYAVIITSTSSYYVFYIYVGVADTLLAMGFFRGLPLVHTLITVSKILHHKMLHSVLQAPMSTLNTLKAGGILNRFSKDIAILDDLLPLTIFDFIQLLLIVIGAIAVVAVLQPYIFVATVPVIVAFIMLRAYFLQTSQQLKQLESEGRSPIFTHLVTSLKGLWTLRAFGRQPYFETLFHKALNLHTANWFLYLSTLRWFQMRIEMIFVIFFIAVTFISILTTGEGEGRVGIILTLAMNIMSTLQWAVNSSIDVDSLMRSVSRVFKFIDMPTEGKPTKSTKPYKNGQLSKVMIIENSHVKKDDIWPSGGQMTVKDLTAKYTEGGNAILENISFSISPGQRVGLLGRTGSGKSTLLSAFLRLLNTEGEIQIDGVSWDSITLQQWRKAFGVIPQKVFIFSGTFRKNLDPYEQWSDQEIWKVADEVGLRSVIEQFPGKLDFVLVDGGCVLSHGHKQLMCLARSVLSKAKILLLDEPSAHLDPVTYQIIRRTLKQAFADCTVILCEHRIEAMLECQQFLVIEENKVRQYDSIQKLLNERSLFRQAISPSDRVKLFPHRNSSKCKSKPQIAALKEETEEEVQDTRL

For data set [4] the following is noted: amide bond, 13-membered ring, DMF.
The target in data set [5] is T2, CFTR (Homo sapiens, UniProt P13569, DEL508-508).
T2 construct: endogenous in cells; host or cells: primary human bronchial epithelial cells from CF subjects (F508del/MF-HBE), differentiated at air-liquid interface
T2 sequence (P13569 with tags, fused parts or gaps DEL508-508): as above
In words: HBE2 assay: Ussing chamber assay of CFTR-mediated short-circuit currents. Type of data set: cell-based. The following applies: F508del/MF-HBE cells, with 44 nM potentiator, 18-24 hours, 20% human serum. In a few lines: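 F508del/MF-HBE cultured >14 days at air-liquid interface, mounted in Ussing chambers; transepithelial short-circuit current recorded under voltage clamp (Vhold=0 mV) at 37 °C. CFTR-mediated ISC (μA/cm^2) taken as peak forskolin response relative to steady-state current after inhibition; corrector activity assessed this way.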

The target of data set [6] is T2, CFTR. In words: HBE assay: Ussing chamber assay of CFTR-mediated short-circuit currents. Conditions: HBE assay. Type of data set: cell-based. In a few lines: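 CFTR-mediated Isc (μA/cm²) equals the peak response to apical 20 μM forskolin minus the residual after a 20 μM each BPO/GlyH-101/CFTR inhibitor 172 cocktail, recorded in Ussing chambers at Vhold 0 mV, 37 °C, pH 7.4, with 30 μM apical amiloride. Cells were F508del/MF HBE cultures preincubated 18-24 h with corrector (concentration range or 10 μM) plus 1 μM ivacaftor in 20% human serum.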

`CCOC(=O)CCCCN1C(=O)c2cccc(n2)S(=O)(=O)Nc2nc(cc(-c3c(C)cccc3C)n2)OC[C@H]1CC(C)(C)C` had a ring closure, crude yield in data set [1] (from CCOC(=O)CCCCN[C@@H](COc1cc(-c2c(C)cccc2C)nc(NS(=O)(=O)c2cccc(C(=O)O)n2)n1)CC(C)(C)C, HATU/DIEA, 26.1 mM) of 100%.

As for `COCN1c2nc(cc(-c3c(C)cccc3C)n2)OC[C@@H](CC(C)C)NC(=O)c2cccc(c2)S1(=O)=O`, in data set [1] (from COCN(c1nc(OC[C@H](N)CC(C)C)cc(-c2c(C)cccc2C)n1)S(=O)(=O)c1cccc(C(=O)O)c1, HATU/Et3N, 106.0 mM), the ring closure, crude yield is 100%.

For `C[C@@H]1CCCCC[C@](O)(C(F)(F)F)C2=NN=C(O2)c2nc(c(C(F)(F)F)cc2N)O1` [(6R,12R)-17-amino-12-methyl-6,15-bis(trifluoromethyl)-13,19-dioxa-3,4,18-triazatricyclo[12.3.1.12,5]nonadeca-1(18),2,4,14,16-pentaen-6-ol], on CFTR [2], the CFTR modulatory activity entry is recorded as “confirmed”.

As to `Cc1cccc(C)c1-c1cc2nc(n1)NS(=O)(=O)c1cccc(c1)C(=O)N(C)CC(c1ccc(Br)cc1)O2` (stereo not drawn) [Compound 8, 10-(4-Bromophenyl)-6-(2,6-dimethylphenyl)-12-methyl-2,2-dioxo-9-oxa-2λ^6-thia-3,5,12,19-tetrazatricyclo[12.3.1.14,8]nonadeca-1(18),4(19),5,7,14,16-hexaen-13-one], at CFTR [3], the “Ent. A Max Activity” value was “+++ (+++ is >60%)” and the concentration for a half-maximal effect (EC50) (commonly the concentration that produces a half-maximal response) was under 1000 nM. Also, the ring closure, isolated yield in data set [4] (from CNCC(Oc1cc(-c2c(C)cccc2C)nc(NS(=O)(=O)c2cccc(C(=O)O)c2)n1)c1ccc(Br)cc1, HATU/DIEA, 29.7 mM, 25.0 °C, 2.0 h, 2 steps) worked out at 61%.

As for `Cc1cccc(C)c1-c1cc2nc(n1)NS(=O)(=O)c1cccc(c1)C(=O)N(C)CC(CNC(=O)OC(C)(C)C)O2` (stereo not drawn) [Compound 97, tert-Butyl N-[[6-(2,6-dimethylphenyl)-12-methyl-2,2,13-trioxo-9-oxa-2λ^6-thia-3,5,12,19-tetrazatricyclo[12.3.1.14,8]nonadeca-1(18),4(19),5,7,14,16-hexaen-10-yl]methyl]carbamate], on CFTR [3], the “Ent. A Max Activity” value was “++ (++ is 30-60%)” and the concentration giving a half-maximal response (EC50) lay in the range of 3000 to 30000 nM. In data set [4] (from CNCC(CNC(=O)OC(C)(C)C)Oc1cc(-c2c(C)cccc2C)nc(NS(=O)(=O)c2cccc(C(=O)O)c2)n1, HATU/DIEA, 37.9 mM, 25.0 °C, 0.25 h), this molecule registered a ring closure, isolated yield of 42%.

With `Cc1cccc(C)c1-c1cc2nc(n1)NS(=O)(=O)c1cccc(c1)C(=O)N(C)CC(COCc1ccccc1)O2` (stereo not drawn) [Compound 99, 10-(benzyloxymethyl)-6-(2,6-dimethylphenyl)-12-methyl-2,2-dioxo-9-oxa-2λ^6-thia-3,5,12,19-tetrazatricyclo[12.3.1.14,8]nonadeca-1(18),4(19),5,7,14,16-hexaen-13-one], at CFTR [3], the “Ent. A Max Activity” value was “++ (++ is 30-60%)” and the EC50 lay in the range of 1000 to 3000 nM. This molecule displayed a ring closure, isolated yield in data set [4] (from CNCC(COCc1ccccc1)Oc1cc(-c2c(C)cccc2C)nc(NS(=O)(=O)c2cccc(C(=O)O)c2)n1, HATU/DIEA, 33.6 mM, 25.0 °C, 0.25 h) of 58%.

With `Cc1cccc(C)c1-c1cc2nc(n1)NS(=O)(=O)c1cccc(c1)C(=O)N(Cc1ncc(OC(C)C)cn1)[C@H](CC1CCC1)CO2` [Compound 1297, (11R)-11-(Cyclobutylmethyl)-6-(2,6-dimethylphenyl)-12-[(5-isopropoxypyrimidin-2-yl)methyl]-2,2-dioxo-9-oxa-2λ^6-thia-3,5,12,19-tetrazatricyclo[12.3.1.14,8]nonadeca-1(18),4(19),5,7,14,16-hexaen-13-one], the “HBE2 Activity at 3 μM (%)” value on CFTR [5] (3 μM) is “+++ (+++ is >60+)”. The EC50 on CFTR [5] and on CFTR [6] (read-out: HBE EC50) was under 1000 nM throughout. In addition, the Emax at CFTR [5] (read-out: HBE2 Max activity (%)) and at CFTR [6] (read-out: HBE Max activity (%)) was over 60% each time. In data set [4] (from Cc1cccc(C)c1-c1cc(OC[C@@H](CC2CCC2)NCc2ncc(OC(C)C)cn2)nc(NS(=O)(=O)c2cccc(C(=O)O)c2)n1, CDMT/NMM, 30.4 mM, 15.0 h), this molecule gave a ring closure, isolated yield of 58%.
